Source: patent US20190209506A1, “METHODS OF REDUCING OR PREVENTING OXIDATION OF LDL OR LIPID MEMBRANES IN A SUBJECT IN NEED THEREOF” (Amarin Pharmaceuticals Ireland Limited, priority 2018, published 2019)
Values joined by “and” are separate entries in the source; they are usually repeats but may differ in a detail not shown here. Equal entries are not always repeated.

What was measured:
human sdLDL [1] = experiment: Copper-induced sdLDL oxidation with fatty acids, TBARS/MDA (Example 14); assay type: biochemical; conditions: 1.0 μM; for effect on oxidation: 60 minutes
Method: Venous blood was collected from healthy volunteers into vacutainer tubes. Plasma was separated by centrifugation at 3000 g for 25 min at 4° C. and adjusted to a density of 1.020 g/mL with KBr. sdLDL was isolated from the plasma of healthy volunteers by iodixanol density gradient ultracentrifugation and adjusted to a final apolipoprotein concentration of 2 mg/mL. An aliquot of sdLDL (50 μL) was incubated with either 10 μL vehicle (ethanol) or 10 μL FA (EPA, ETE, AA, EA, DHA, DPA, ALA, LA or SA) treatment stock solution (100 μM) for 30 min at 37° C. Oxidation was initiated with addition of initiator CuSO4 (10.0 μM). At certain time points (0, 40, 60, and 120 minutes), […] were removed from each subfraction and combined with 1.0 mL thiobarbituric acid (0.5%), 10 μL trichloroacetic acid (10%), 10 μL butylated hydroxytoluene (BHT; 35 mM in ethanol), and 10 μL ethylenediaminetetraacetic acid (EDTA; 5 mM). Sample aliquots were incubated at 100° C. for 30 min and then assayed for the formation of thiobarbituric acid reactive substances (TBARS), which have a molar absorptivity (ε) value of 1.56×105 M^−1 cm^−1 at 532 nm and are largely derived from the reaction of thiobarbituric acid with MDA, a reactive aldehyde produced by sdLDL oxidation. Sample TBARS concentrations were determined spectrophotometrically by measuring sample absorbances against a standard curve derived from the hydrolysis of 1,1,3,3-tetramethoxypropane.

[2] = LOOH formation in membrane vesicles, fatty acid comparison (Example 16); assay type: biochemical; conditions: 5 μM; 0.1 μM copper sulfate, 48 hours
Method: Iodometric approaches were used to measure in vitro LOOH formation in membrane vesicles reconstituted as binary mixtures of cholesterol and dilinoleoyl phosphatidylcholine. Vesicles were prepared at a cholesterol-to-phospholipid mole ratio of 0.6:1 and subjected to autoxidation (e.g., lipid oxidation) at 37° C. Lipid oxidation was stimulated with 0.1 μM copper sulfate for 48 hours. All FAs were delivered at 5 and 10 μM.

[3] = Membrane cholesterol domain structural integrity, x-ray diffraction (Example 9); conditions: D/P mole ratio 1:30, C/P 1.5:1
Method: Multilamellar vesicles (MLVs) were prepared as binary mixtures that include palmitoyloleoylphosphatidylcholine (POPC) (1.0 mg total phospholipid per sample) and cholesterol at an elevated cholesterol-to-phospholipid (C/P) mole ratio of 1.5:1. […] Samples were shell-dried under nitrogen gas and placed under vacuum for 3 hours to remove residual solvent at room temperature. After desiccation, each sample was resuspended in saline buffer (0.5 mM HEPES, 154 mM NaCl, pH 7.3) to yield a final phospholipid concentration of 2.5 mg/mL. Lipid suspensions were then vortexed for 3 minutes at ambient temperature to form MLVs.
Briefly, a 100 μL aliquot of each MLV preparation (containing 250 μg MLV) was transferred to a Lucite® sedimentation cell fitted with an aluminum foil substrate designed to collect MLVs into a single membrane pellet upon centrifugation. Samples were then loaded into a Sorvall AH-629 swinging bucket rotor (DuPont Corp., Wilmington, Del.) and centrifuged at 35,000 g, 5° C., for 90 minutes.
After centrifugal orientation, sample supernatants were aspirated and aluminum foil substrates, each supporting a single membrane pellet, were removed from the sedimentation cells. Sample pellets were dried for 5-10 minutes at ambient conditions, mounted onto curved glass supports, and placed in hermetically-sealed, brass or glass containers (for immediate analysis or temporary storage, respectively). All x-ray diffraction experiments were conducted at 20° C., 74% relative humidity. The latter was established by exposing membrane samples to saturated solutions of […] (K2C4H4O6.½H2O) for at least 1 hour prior to experimental analysis.
Oriented membrane samples were aligned at grazing incidence with respect to a collimated, mono-chromatic CuKα x-ray beam (Kα1 and Kα2 unresolved; λ=1.54 Å) produced by a Rigaku Rotaflex RU-200, high-brilliance microfocus generator (Rigaku-MSC, The Woodlands, Tex.) as previously described (Mason et al., Biophys. J., vol. 55(4), pages 769-778 (1989)). The samples were initially subjected to x-ray diffraction analysis at least 12 hours after formation of the membrane pellets and retested for up to several days. Analytical x-rays were generated by electron bombardment of a rotating copper anode and are filtered through a thin nickel foil to provide monochromatic radiation (λ=1.54 Å). Collimation of the x-ray beam was achieved using a single Franks mirror. Diffraction data were collected on a one-dimensional, position-sensitive electron detector (Hecus X-ray Systems, Graz, Austria) at a sample-to-detector distance of 150 mm from the sample site.
The d-space for any given membrane multi bilayer is a measurement of the unit cell periodicity of the membrane lipid bilayer (e.g., the distance from the center of one lipid bilayer to the next including surface hydration), and is calculated from Bragg's Law, hλ=2d sin θ, where h is the diffraction order, λ is the wavelength of the x-ray radiation (1.54 Å), d is the membrane lipid bilayer unit cell periodicity, and θ is the Bragg angle equal to one-half the angle between the incident beam and scattered beam.
The presence of cholesterol domains in a given membrane sample results in the production of distinct Bragg (diffraction) peaks having singular periodicity values of 34 and 17 Å (typically referred to as first- and second-order cholesterol domain peaks). Under the specific temperature and relative humidity conditions established for these experiments, the second-order, 17 Å cholesterol domain peak was well-delineated from other, neighboring cholesterol and phospholipid diffraction peaks and was thus used to quantitate relative cholesterol domain peak intensity. Routines written in Origin 8.6 (OriginLab Corporation, Northampton, Mass.) were used to determine total peak area (associated with all diffraction peaks in a given pattern) against which the second-order cholesterol domain peak was normalized.

human sdLDL [4] = experiment: Copper-induced sdLDL oxidation, TBARS (Example 7); assay type: biochemical; conditions: 10 μM; 1 hour
Method: An experiment to study the antioxidant effect of EPA in LDL and small dense LDL (“sdLDL”) was performed. LDL and sdLDL were isolated from the plasma of healthy volunteers by iodixanol density gradient ultracentrifugation, and adjusted to a final apolipoprotein concentration of 2 mg/mL. […] Lipid oxidation was initiated with 10 μM CuSO4 and monitored by the colorimetric detection of thiobarbituric acid reactive substances (TBARS) for 1 hr. Vitamin E was also incubated with sample aliquots as a positive control.

human LDL = experiment: Copper-induced oxidation of unfractionated LDL, TBARS (Example 7); assay type: biochemical; conditions: 10 μM; 1 hour
Method: An experiment to study the antioxidant effect of EPA in LDL and small dense LDL (“sdLDL”) was performed. LDL and sdLDL were isolated from the plasma of healthy volunteers by iodixanol density gradient ultracentrifugation, and adjusted to a final apolipoprotein concentration of 2 mg/mL. […] Vitamin E was also incubated with sample aliquots as a positive control.

human sdLDL [5] = experiment: Glucose-induced sdLDL oxidation, MDA/TBARS (Example 10); assay type: biochemical; conditions: 10 μM; glucose 200 mg/dL; 1 hr
Method: Vitamin E (α-tocopherol) purchased from Sigma-Aldrich was prepared in ethanol at 1.0 mM (ε=3.06×10^4M^−1 cm^−1 at 294 nm) prior to experimental use. Test compounds were further diluted in ethanol or aqueous buffer as needed. Phosphate Buffered Saline (PBS) purchased from Sigma-Aldrich was prepared in double distilled water at 10 mM (138 mM NaCl, 2.7 mM KCl, pH 7.4). Glucose prepared in PBS was added to test samples to achieve a final concentration of 11.0 mM (200 mg/dL).
LDL and sdLDL were isolated from the plasma of healthy volunteers by iodixanol density gradient ultracentrifugation and adjusted to a final apolipoprotein concentration of 10 mg/mL. […] Sample aliquots were incubated at 100° C. for 30 minutes and then assayed for the formation of thiobarbituric acid-reactive substances (TBARS), having a molar absorptivity (ε) value of 1.56×10^5 M^−1 cm^−1 at 532 nm and were derived principally from the reaction of thiobarbituric acid with malondialdehyde (MDA). Lipid oxidation was measured by the colorimetric detection of malondialdehyde (MDA), a marker of oxidative stress.

Compound | inhibition of lipoprotein oxidation versus vehicle (human sdLDL [1]; 40 minutes) | effect on oxidation (human sdLDL [1]) | MDA Equivalents (Mean ± SD) (human sdLDL [1]; time point 0 min) | MDA Equivalents (Mean ± SD) (human sdLDL [1]; time point 40 min) | MDA Equivalents (Mean ± SD) (human sdLDL [1]; time point 60 min) | MDA Equivalents (Mean ± SD) (human sdLDL [1]; time point 120 min) | reduction of LOOH levels compared to the vehicle [2] | % change Vs control (cholesterol domain peak intensity) [3] | Relative Cholesterol Domain Peak Intensity [3] | reduction in cholesterol domain peaks compared to vehicle [3] | Relative Cholesterol Domain Peak Intensity ([3]; listed as Glyc) | effect on sdLDL oxidation compared to vehicle-treated controls (human sdLDL [4]) | effect on unfractionated LDL oxidation (human LDL) | % change Vs control (cholesterol domain peak intensity) ([3]; listed as Gemfib) | Relative Cholesterol Domain Peak Intensity ([3]; listed as Gemfib) | effect on glucose-induced sdLDL oxidation (human sdLDL [5]) | effect on lipoprotein oxidation compared to vehicle (human sdLDL [1]; 40 minutes) | % change Vs control (cholesterol domain peak intensity) ([3]; listed as Niacin) | Relative Cholesterol Domain Peak Intensity ([3]; listed as Niacin)
eicosatrienoic acid [ETE] | 32% | failed to inhibit oxidation at 60 minutes | 0.40 ± 0.11 µM | 7.19 ± 0.43 µM | 10.90 ± 0.28 µM | 12.57 ± 0.15 µM | 36% | – | – | – | – | – | – | – | – | – | – | – | –
CC1(C)[C@@H](O[C@H]2O[C@H](C(=O)O)[C@@H](O)[C@H](O)[C@H]2O[C@@H]2O[C@H](C(=O)O)[C@@H](O)[C@H](O)[C@H]2O)CC[C@]2(C)[C@H]3C(=O)C=C4[C@@H]5C[C@@](C)(C(=O)O)CC[C@]5(C)CC[C@@]4(C)[C@]3(C)CC[C@@H]12 [glycyrrhizin] | – | – | – | – | – | – | – | −54.9 ± 12.3% | 19.1±1.2 | 54.9% | 19.1 ± 1.2 | – | – | – | – | – | – | – | –
Cc1ccc(C)c(OCCCC(C)(C)C(=O)O)c1 [gemfibrozil] | – | – | – | – | – | – | – | 11% | 46.9±12.6 | – | – | no significant effect on sdLDL oxidation | no significant effect on unfractionated LDL oxidation | −10.9 ± 43.3% | 46.9 ± 12.6 | did not inhibit glucose-induced sdLDL oxidation | – | – | –
CCCCC/C=C\C/C=C\C/C=C\C/C=C\CCCC(=O)O [AA, arachidonic acid] | – | – | 0.67 ± 0.06 µM | 10.89 ± 0.35 µM | 11.86 ± 0.46 µM | 12.88 ± 0.60 µM | – | −45.2% and −46.8 ± 15.2% | 22.5 ± 4.3 | – | – | – | – | – | – | – | failed to inhibit lipoprotein oxidation | – | –
CC/C=C\C/C=C\C/C=C\CCCCCCCC(=O)O [ALA, α-linolenic acid] | 16% and 15% | failed to inhibit oxidation at 60 minutes | 0.40 ± 0.06 µM | 8.91 ± 0.24 µM | 11.48 ± 0.18 µM | 12.94 ± 0.40 µM | 27% | −46.8% and −45.2 ± 11.3% | 23.2 ± 0.6 | – | – | – | – | – | – | – | – | – | –
O=C(O)c1cccnc1 [niacin, nicotinic acid] | – | – | – | – | – | – | – | −35% | 27.5±12.2 | – | – | no significant effect on sdLDL oxidation | no significant effect on unfractionated LDL oxidation | – | – | did not inhibit glucose-induced sdLDL oxidation | – | −35.0 ± 30.8% | 27.5 ± 12.2
